Laboratory results taken from PubChem BioAssay (NCI).
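Step 1: Grow cells in 96-well plates. Step 2: Expose to compound for 48 hours at 5 concentrations. Step 3: Interpolate endpoints linearly; if unreached, use highest concentration. Here, GI50 denotes the concentration required for 50% inhibition of growth. TGI: total growth inhibition.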

Experiments:
Test in all cases: DTP human tumour cell line panel, 48 h
SK-MEL-2 melanoma = tested on: SK-MEL-2 melanoma
MCF7 breast = tested on: MCF7 breast
NCI-H226 lung = tested on: NCI-H226 lung
786-0 renal = tested on: 786-0 renal
LOX IMVI melanoma = tested on: LOX IMVI melanoma
DU-145 prostate = tested on: DU-145 prostate
CAKI-1 renal = tested on: CAKI-1 renal
OVCAR-8 ovarian = tested on: OVCAR-8 ovarian
MDA-MB-435 = tested on: MDA-MB-435
NCI-H522 lung = tested on: NCI-H522 lung
U251 CNS = tested on: U251 CNS
SF-268 CNS = tested on: SF-268 CNS
K-562 leukemia = tested on: K-562 leukemia
MOLT-4 leukemia = tested on: MOLT-4 leukemia
NCI-H23 lung = tested on: NCI-H23 lung
HS 578T breast = tested on: HS 578T breast
SNB-19 CNS = tested on: SNB-19 CNS
NCI-H460 lung = tested on: NCI-H460 lung
HOP-92 NSCLC = tested on: HOP-92 NSCLC
PC-3 prostate = tested on: PC-3 prostate
OVCAR-5 ovarian = tested on: OVCAR-5 ovarian
HCC-2998 colon = tested on: HCC-2998 colon
M14 melanoma = tested on: M14 melanoma
OVCAR-3 ovarian = tested on: OVCAR-3 ovarian
EKVX NSCLC = tested on: EKVX NSCLC
KM12 colon = tested on: KM12 colon
HCT-116 colon = tested on: HCT-116 colon
SN12C renal = tested on: SN12C renal
SK-MEL-5 melanoma = tested on: SK-MEL-5 melanoma
SK-MEL-28 melanoma = tested on: SK-MEL-28 melanoma
COLO 205 colon = tested on: COLO 205 colon
BT-549 breast = tested on: BT-549 breast
RPMI-8226 leukemia = tested on: RPMI-8226 leukemia
SNB-75 CNS = tested on: SNB-75 CNS
TK-10 renal = tested on: TK-10 renal
RXF 393 renal = tested on: RXF 393 renal
A498 renal = tested on: A498 renal
HL-60(TB) leukemia = tested on: HL-60(TB) leukemia
HCT-15 colon = tested on: HCT-15 colon
NCI/ADR-RES ovarian = tested on: NCI/ADR-RES ovarian
A549 NSCLC = tested on: A549 NSCLC
UACC-62 melanoma = tested on: UACC-62 melanoma
UACC-257 melanoma = tested on: UACC-257 melanoma
MDA-MB-231 breast = tested on: MDA-MB-231 breast
ACHN renal = tested on: ACHN renal
SF-539 CNS = tested on: SF-539 CNS
T-47D breast = tested on: T-47D breast
CCRF-CEM leukemia = tested on: CCRF-CEM leukemia
SW-620 colon = tested on: SW-620 colon
SF-295 CNS = tested on: SF-295 CNS
HOP-62 NSCLC = tested on: HOP-62 NSCLC

Structure (SMILES): CCN1C2=C(SC(=S)C1=C1SC(C(=O)OC)=C(C(=O)OC)S1)SC(=Nc1ccc(OC)cc1)C2=O
- GI50 (SK-MEL-2 melanoma): 2.09 µM
- TGI (SK-MEL-2 melanoma): 5.29 µM
- GI50 (MCF7 breast): 1.9 µM
- TGI (MCF7 breast): 5.75 µM
- GI50 (NCI-H226 lung): 2.25 µM
- TGI (NCI-H226 lung): 5.26 µM
- GI50 (786-0 renal): 1.8 µM
- TGI (786-0 renal): 3.34 µM
- GI50 (LOX IMVI melanoma): 1.69 µM
- TGI (LOX IMVI melanoma): 3.43 µM
- GI50 (DU-145 prostate): 1.73 µM
- TGI (DU-145 prostate): 3.43 µM
- GI50 (CAKI-1 renal): 1.81 µM
- TGI (CAKI-1 renal): 3.9 µM
- GI50 (OVCAR-8 ovarian): 2.82 µM
- TGI (OVCAR-8 ovarian): > 100 µM
- GI50 (MDA-MB-435): 2.21 µM
- TGI (MDA-MB-435): 5.55 µM
- GI50 (NCI-H522 lung): 1.59 µM
- TGI (NCI-H522 lung): 3.96 µM
- GI50 (U251 CNS): 1.65 µM
- TGI (U251 CNS): 3.27 µM
- GI50 (SF-268 CNS): 2.56 µM
- TGI (SF-268 CNS): 7.64 µM
- GI50 (K-562 leukemia): 2.36 µM
- TGI (K-562 leukemia): > 100 µM
- GI50 (MOLT-4 leukemia): 1.54 µM
- TGI (MOLT-4 leukemia): 5.29 µM
- GI50 (NCI-H23 lung): 2.27 µM
- TGI (NCI-H23 lung): 4.17 µM
- GI50 (HS 578T breast): 3.93 µM
- TGI (HS 578T breast): > 100 µM
- GI50 (SNB-19 CNS): 2.89 µM
- TGI (SNB-19 CNS): 10.8 µM
- GI50 (NCI-H460 lung): 2.02 µM
- TGI (NCI-H460 lung): 4.65 µM
- GI50 (HOP-92 NSCLC): 2.97 µM
- TGI (HOP-92 NSCLC): 26.1 µM
- GI50 (PC-3 prostate): 3.01 µM
- TGI (PC-3 prostate): > 100 µM
- GI50 (OVCAR-5 ovarian): 2.37 µM
- TGI (OVCAR-5 ovarian): 6.19 µM
- GI50 (HCC-2998 colon): 1.95 µM
- TGI (HCC-2998 colon): 3.66 µM
- GI50 (M14 melanoma): 1.75 µM
- TGI (M14 melanoma): 3.75 µM
- GI50 (OVCAR-3 ovarian): 1.79 µM
- TGI (OVCAR-3 ovarian): 3.39 µM
- GI50 (EKVX NSCLC): 3.62 µM
- TGI (EKVX NSCLC): 21.3 µM
- GI50 (KM12 colon): 1.67 µM
- TGI (KM12 colon): 3.13 µM
- GI50 (HCT-116 colon): 1.59 µM
- TGI (HCT-116 colon): 3.11 µM
- GI50 (SN12C renal): 2.76 µM
- TGI (SN12C renal): > 100 µM
- GI50 (SK-MEL-5 melanoma): 1.63 µM
- TGI (SK-MEL-5 melanoma): 3.08 µM
- GI50 (SK-MEL-28 melanoma): 1.69 µM
- TGI (SK-MEL-28 melanoma): 3.25 µM
- GI50 (COLO 205 colon): 1.92 µM
- TGI (COLO 205 colon): 5.74 µM
- GI50 (BT-549 breast): 1.71 µM
- TGI (BT-549 breast): 4.06 µM
- GI50 (RPMI-8226 leukemia): 2.38 µM
- TGI (RPMI-8226 leukemia): 9.19 µM
- GI50 (SNB-75 CNS): 1.1 µM
- TGI (SNB-75 CNS): 2.53 µM
- GI50 (TK-10 renal): 5.08 µM
- TGI (TK-10 renal): > 100 µM
- GI50 (RXF 393 renal): 1.88 µM
- TGI (RXF 393 renal): 3.98 µM
- GI50 (A498 renal): 2.03 µM
- TGI (A498 renal): 5.37 µM
- GI50 (HL-60(TB) leukemia): 1.79 µM
- TGI (HL-60(TB) leukemia): 6.83 µM
- GI50 (HCT-15 colon): 3.02 µM
- TGI (HCT-15 colon): 33.3 µM
- GI50 (NCI/ADR-RES ovarian): 3.05 µM
- TGI (NCI/ADR-RES ovarian): 7.19 µM
- GI50 (A549 NSCLC): 13.1 µM
- TGI (A549 NSCLC): 62.5 µM
- GI50 (UACC-62 melanoma): 1.73 µM
- TGI (UACC-62 melanoma): 3.84 µM
- GI50 (UACC-257 melanoma): 1.76 µM
- TGI (UACC-257 melanoma): 3.87 µM
- GI50 (MDA-MB-231 breast): 3.39 µM
- TGI (MDA-MB-231 breast): > 100 µM
- GI50 (ACHN renal): 1.82 µM
- TGI (ACHN renal): 3.58 µM
- GI50 (SF-539 CNS): 1.86 µM
- TGI (SF-539 CNS): 3.77 µM
- GI50 (T-47D breast): 2.16 µM
- TGI (T-47D breast): 5.88 µM
- GI50 (CCRF-CEM leukemia): 2.09 µM
- TGI (CCRF-CEM leukemia): > 100 µM
- GI50 (SW-620 colon): 1.77 µM
- TGI (SW-620 colon): 3.7 µM
- GI50 (SF-295 CNS): 1.31 µM
- TGI (SF-295 CNS): 3.55 µM
- GI50 (HOP-62 NSCLC): 1.95 µM
- TGI (HOP-62 NSCLC): 3.8 µM
